This note sets out measurements from patent US9062037B2, “Tazarotene derivatives” (Stiefel Laboratories, Inc., priority 2009, dated 2015).

The structures appear in SMILES notation. Where two headings read alike, the source gives them in different places.

In data set [1] the test system is Reconstructed human epidermis (RHE) tissues. Description: RT-qPCR gene expression of K10, K19, filaggrin, K4 and K13 in reconstructed human epidermis (RHE) cultures. The conditions noted are these: 72 h, 2.83 mM in OD/10% DMSO, 6 μl. In kind it is cell-based. How it is done:
Reconstructed human epidermis (RHE) tissues were cultured in-house as previously described by Poumay et al. Briefly, polycarbonate culture inserts (12 mm diameter and 0.4 μm pore size, Millipore) were filled with 150 μL of a suspension containing approximately 5×10^5 primary adult human keratinocytes. The inserts received another 500 μL of keratinocyte culture media and were placed in a 6-well plate (1 insert/well) containing 2.5 mL of RHE Growth Media (Epilife media +1.5 mM CaCl2). RHE cultures were incubated at 37° C. in a humidified atmosphere containing 5% CO2, for 24 hours. Subsequently (on Day 0), RHE cultures were exposed to the air-liquid interface by removing the RHE Growth Media from the top of the cultures, and replacing with 1.5 mL/well of RHE Growth Media containing 50 μg/mL vitamin C. Media was changed every other day until the cultures were dosed with Test Articles. A stock solution of 0.1% tazarotene (2.83 mM at 99.5% purity) in OD/10% DMSO was prepared. For tazarotene benzoate, hydroxytazarotenic acid, keto tazarotenic acid, keto tazarotene, and tazarotene nicotinate, a 10 mg/mL stock solution (in DMSO) was already prepared. From this stock solution, a 2.83 mM working solution (in octyldodecanol) was prepared. All other tested compounds were resuspended in DMSO and OD to obtain a final concentration of 2.83 mM in OD/10% DMSO. On Day 12, the cultures were placed in 60 mm petri dishes containing 3 mL of RHE Growth Media (+VitC). Test articles (6 μl) were applied to triplicate cultures and cultures were incubated at 37° C. for 72 hours. Untreated and OD alone served as negative controls. At the end of the incubation period, the growth media was collected and stored at −20° C. The tissues were cut in half: one half was placed in 10% NBF for histology, and the other half was placed in RNAlater™ solution for RT-qPCR. RNA was isolated and concentrations were determined using a NanoDrop spectrophotometer. In addition to using the same amount of RNA for each sample, data was normalized to internal GAPDH mRNA levels and is expressed as relative quantification (RQ) to untreated controls. RNA extracts from each replicate were amplified using RT-qPCR. The relative gene expression of five biomarkers was determined: Keratin 10, Keratin 19, Filaggrin, Keratin 4, and Keratin 13.
(Real-time PCR tracks product formation cycle by cycle.)

The nature of data set [2]: Metabolism in the presence of human skin microsomes. The following applies: human skin microsomes; paraoxon 0, 10 or 100 μM.
Description: (§2) Hepatic microsomal reactions were carried out in microcentrifuge tubes in the following manner. Human liver microsomes (0.5 or 1.0 mg/ml protein), Test Article (1 or 10 μM), paraoxon (0, 10 or 100 μM), NADPH regenerating system (10 mM glucose-6-phosphate, 1 unit/ml glucose-6-phosphate dehydrogenase, 1 mM NADP^+), magnesium chloride (5 mM) in 0.1 M potassium phosphate buffer, pH 7.4 were incubated at 37° C. in a shaking water bath. Reactions were initiated with the addition of substrate with the exception of the zero-time incubations. The total reaction volume was 0.2 ml. The reactions were incubated for 15, 30, 45 or 60 minutes, terminated with 0.2 ml ice-cold acetonitrile and then placed on ice. For zero-time incubations, ice cold acetonitrile was added to the mixture containing microsomes, along with NADPH regenerating system, magnesium chloride in phosphate buffer and the Test Article. Each time point was carried out in triplicate.
Five time points were chosen, but because of the limitation of human skin microsome supply, each one was carried out in duplicate. Skin microsomal reactions were carried out as described above for hepatic microsomal reactions with the following two exceptions. Firstly, the total reaction volume was 0.1 mL. Secondly, incubations were terminated with 0.1 mL acetonitrile.
For data set [3] the following is noted: for k constant: HLM.
Description: as §2
(§3) Disappearance of Test Article and formation of metabolites following in vitro metabolism were determined by LC-MS/MS using multiple reaction monitoring. LightSight® software (Applied Biosystems, Foster City, Calif.) was used to generate the mass spectrometry methods and carry out the data mining.
(§4) Control incubations were carried out with the identical incubation procedures as described above with the following exceptions. In negative control reactions, microsomes were not included. […] Duplicate reactions with an initial concentration of 10 μM were incubated for 0 or 30 minutes. Microsomal metabolic stability of 7-ethoxycoumarin was determined by LC-MS/MS.
The nature of data set [4]: Stability in rat plasma at room temperature. The data set is classed as in vitro ADME. How it is done: (§1) Tazarotene, tazarotene sulfoxide and tazarotene benzoate were incubated at room temperature with human and rat plasma. The incubation was carried out in duplicate and samples were taken at specific time points for stability analyses (i) rat samples (0 hour, 2 hours and 4 hours) and (ii) human samples (0 hour, 2 hours, 4 hours and 8 hours). Samples were analyzed by LC-MS/MS.

Data set [5] is described as follows: In vitro application of DUAC gel/TAZORAC cream mixture to split-thickness human skin; tazarotene and degradants quantified by LC/MS/MS. The data set is classed as in vitro ADME. As for the experimental part:
An in vitro study was conducted to assess the formation of tazarotene degradants following the application of a mixture of DUAC gel and TAZORAC cream to human skin.
Equal portions of DUAC gel and TAZORAC cream were dispensed into a glass vial and mixed for approximately three minutes with a metal spatula to ensure a homogenous mixture. Samples of European DUAC gel and US DUAC gel were used in separate experiments. […] The test mixtures were then applied to the surface of split-thickness skin (˜0.25 mm) at a dose of 15.6 mg/cm^2 and spread evenly using a positive displacement pipette.
After 2 and 6 hours, the skin samples were washed, tape stripped twice, and then the epidermis was peeled from the dermis using a heat block. The skin samples were then extracted with acetonitrile overnight at 4° C. The distribution of tazarotene and its degradants within the epidermis, dermis and surface wash were quantified by LC/MS/MS with a 50 pg/mL LOQ. The experiments were performed under yellow light conditions. For the purposes of comparison, mixtures of DUAC gel and TAZORAC cream were also prepared and retained for stability testing at 0, 2 and 6 hour time points.

The nature of data set [6]: HPLC analysis of mixtures of DUAC gel and TAZORAC cream (degradation of tazarotene in the presence of benzoyl peroxide). The data set is classed as physicochemical. The conditions noted are these: fresh samples; 35° C.; 4 hours. As for the experimental part: DUAC® gel (1% clindamycin and 5% benzoyl peroxide marketed by Stiefel Laboratories, Inc.) and TAZORAC® cream (0.1% tazarotene marketed by Allergan, Inc.) have been successfully used to treat facial acne. However, these topical treatments are not approved for concomitant use. To study whether tazarotene is susceptible to oxidative decomposition by benzoyl peroxide, an in vitro laboratory study was conducted wherein a mixture of DUAC gel and TAZORAC cream was prepared.
Samples were prepared by taking equal portions of DUAC gel and TAZORAC cream and mixing them thoroughly at room temperature with a spatula in a suitable container to form a uniform mixture. The initial samples were analyzed immediately by HPLC. The other samples were placed into an oven at 35° C. and removed for analysis after one, two, four, six and eight hours. An allowance was made for product evaporation over the course of the study.

Data set [7] is described as follows: in vitro. The conditions noted are these: human, liver microsomes, pH 7.4, Half-life, HLM. A general note: Liver microsomes are a subcellular fraction often used to study metabolism.
Description: as §2, §3, §4
The nature of data set [8]: Stability in human plasma at room temperature. The data set is classed as in vitro ADME. As for the experimental part:
as §1

The mark [9] stands for this setting: human liver microsomes, paraoxon 0, 10 or 100 μM.
The mark [10] stands for this setting: 1 μM initial concentration, Complete (with NADPH), 0 min.
Setting [11] is: 1 μM initial concentration, Complete (with NADPH), 15 min.
Setting [12] is: 1 μM initial concentration, Complete (with NADPH), 30 min.
The mark [13] stands for this setting: 1 μM initial concentration, Complete (with NADPH), 45 min.
Setting [14] is: 1 μM initial concentration, Complete (with NADPH), 60 min.
Where [15] appears, read: 1 μM initial concentration, Without NADPH, 0 min.
[16] abbreviates: 1 μM initial concentration, Without NADPH, 15 min.
The mark [17] stands for this setting: 1 μM initial concentration, Without NADPH, 30 min.
The mark [18] stands for this setting: 1 μM initial concentration, Without NADPH, 45 min.
The mark [19] stands for this setting: 1 μM initial concentration, Without NADPH, 60 min.
Setting [20] is: 10 μM initial concentration, Complete (with NADPH), 0 min.
Setting [21] is: 10 μM initial concentration, Complete (with NADPH), 15 min.
Where [22] appears, read: 10 μM initial concentration, Complete (with NADPH), 30 min.
The mark [23] stands for this setting: 10 μM initial concentration, Complete (with NADPH), 45 min.
Where [24] appears, read: 10 μM initial concentration, Complete (with NADPH), 60 min.
The mark [25] stands for this setting: 10 μM initial concentration, Without NADPH, 0 min.
Where [26] appears, read: 10 μM initial concentration, Without NADPH, 15 min.
[27] abbreviates: 10 μM initial concentration, Without NADPH, 30 min.
Setting [28] is: 10 μM initial concentration, Without NADPH, 45 min.
Setting [29] is: 10 μM initial concentration, Without NADPH, 60 min.

Regarding `CCOC(=O)c1ccc(C#Cc2ccc3c(c2)C(C)(C)CC(OC(=O)[C@@H](N)C(C)C)S3)nc1` (stereo partly drawn) [Compound 29, 6-[2-((S)-2-Amino-3-methyl-butyryloxy)-4,4-dimethyl-thiochroman-6-ylethynyl]-nicotinic acid ethyl ester], the fold induction at 2830 µM in data set [1] (read-out: K4 Fold Change vs Untreated/OD controls (upregulation)) was found to be 71; in data set [1] (read-out: K13 Fold Change vs Untreated/OD controls (upregulation)), 13; in data set [1] (read-out: K19 Fold Change vs Untreated/OD controls (upregulation)) it was 29.

`CCOP(=O)(OCC)Oc1ccc([N+](=O)[O-])cc1` [Paraoxon]: in data set [2], the “inhibition of tazarotene benzoate metabolism to hydroxy tazarotenic acid” value is given as “inhibited”. The “inhibition of the metabolism of tazarotenic acid to tazarotenic acid sulfoxide” value in data set [3] (CYP- and FMO-mediated reaction) is “did not inhibit”. Besides, in data set [3] (setting [9]), the “inhibition of tazarotene benzoate metabolism to hydroxy tazarotenic acid” value is reported as “inhibited”, the “inhibition of tazarotene metabolism to tazarotenic acid” value is on record as “inhibited” and the “inhibition of tazarotene sulfoxide metabolism to tazarotenic acid sulfoxide” value is recorded as “inhibited”.

What is called half-life is the time in which the quantity being followed falls by half. A higher half-life goes with slow decline. Turning to `CCOC(=O)c1ccc(C#Cc2ccc3c(c2)C(C)(C)CC[S+]3[O-])nc1` (stereo not drawn) [Tazarotene sulfoxide, 6-(4,4-Dimethyl-1-oxo-1λ^4-thiochroman-6-ylethynyl)nicotinic acid ethyl ester], the “concentration in rat plasma” value in data set [4] (0 hour) was 34.1 ng/mL; in data set [4] (2 hours), “<LOD”; in data set [4] (4 hours), “<LOD”. Further, in data set [5] (after 2 hours of application of the DUAC/TAZORAC mixture to the skin), the “identified in the epidermis and dermis” value is “identified in the epidermis and dermis”. In addition, in data set [5] (mixture of DUAC gel and TAZORAC cream retained for stability testing), the “quantity in stability samples at the 6 hour time point relative to the 2 hour time point” value is “doubled”. For the same molecule, in data set [6], the “% Label Tazarotene Sulfoxide” value is ~16 % Label. For the same molecule, the half-life at 1 µM in data set [7] (Complete) was 10.1 min; in data set [7] (Without NADPH), 8.9 min. Also, the half-life at 10 µM in data set [7] (Complete) was 10.7 min; in data set [7] (Without NADPH) it was 9.08 min. The “concentration in human plasma” value in data set [8] (0 hour) is recorded as 36.2 ng/mL; in data set [8] (2 hours), 34.0 ng/mL; in data set [8] (4 hours) it was 32.2 ng/mL; in data set [8] (8 hours) it was 31.9 ng/mL. Moreover, the “Test Article remaining, percent of initial concentration” value (“Test Article remaining, percent” below) in data set [3] (setting [10]) was 100%; in data set [3] (setting [11]) it was 25.6%; in data set [3] (setting [12]) it was 8.86%; in data set [3] (setting [13]), 4.24%; in data set [3] (setting [14]), 2.17%; in data set [3] (setting [15]), 100%. Moreover, the “Test Article remaining, percent” value is given as 27.9% in data set [3] (setting [16]); 8.40% in data set [3] (setting [17]); 2.72% in data set [3] (setting [18]); 1.11% in data set [3] (setting [19]); 100% in data set [3] (setting [20]); 30.9% in data set [3] (setting [21]). Further, the “Test Article remaining, percent” value in data set [3] (setting [22]) is reported as 11.4%; in data set [3] (setting [23]), 4.80%; in data set [3] (setting [24]) it was 2.70%; in data set [3] (setting [25]), 100%; in data set [3] (setting [26]) it was 30.4%; in data set [3] (setting [27]), 8.96%. For the same molecule, the “Test Article remaining, percent” value in data set [3] (setting [28]) is on record as 2.98%; in data set [3] (setting [29]), 1.18%. Moreover, the k constant in data set [3] (1 μM, Complete) is −0.0689; in data set [3] (1 μM, Without NADPH), −0.0779; in data set [3] (10 μM, Complete), −0.0647; in data set [3] (10 μM, Without NADPH), −0.0763.

Turning to `CC1(C)CCSc2ccc(C#Cc3ccc(C(=O)O)cn3)cc21` [Tazarotenic acid], in data set [5] (under these experimental conditions), the “detection of tazarotenic acid” value was “not detected”. Further, the half-life at 1 µM in data set [7] (Complete) stood at 108 min. In data set [7] (Complete), this molecule showed a half-life at 10 µM of 147 min. Further, the “Test Article remaining, percent” value in data set [3] (setting [10]) is listed as 100%; in data set [3] (setting [11]), 89.9%; in data set [3] (setting [12]), 82.0%; in data set [3] (setting [13]), 75.8%; in data set [3] (setting [14]), 68.0%; in data set [3] (setting [15]), 100%. Moreover, the “Test Article remaining, percent” value in data set [3] (setting [16]) was determined as 100%; in data set [3] (setting [17]), 101%; in data set [3] (setting [18]), 102%; in data set [3] (setting [19]), 101%; in data set [3] (setting [20]), 100%; in data set [3] (setting [21]) it was 93.1%. Besides, the “Test Article remaining, percent” value is listed as 88.6% in data set [3] (setting [22]); 77.8% in data set [3] (setting [23]); 77.4% in data set [3] (setting [24]); 100% in data set [3] (setting [25]); 102% in data set [3] (setting [26]); 99.0% in data set [3] (setting [27]). Moreover, the “Test Article remaining, percent” value in data set [3] (setting [28]) is given as 106%; in data set [3] (setting [29]), 102%. For the same molecule, the k constant in data set [3] (1 μM, Complete) is −0.0064; in data set [3] (1 μM, Without NADPH), 0.0003; in data set [3] (10 μM, Complete), −0.0047; in data set [3] (10 μM, Without NADPH), 0.0006. Also, in data set [3] (in the absence of NADPH), the “metabolized by human liver microsomes” value is “not metabolized”. For the same molecule, in data set [3] (in the presence of NADPH), the “metabolized by human liver microsomes to tazarotenic acid sulfoxide” value is given as “slowly metabolized”.
